One experiment has as its system HCT116 MTAP+/+. Put plainly: Inhibition of cellular proliferation (Cell Titer Glo), HCT116 MTAP+/+. Type of experiment: cell-based. Particulars: Homo sapiens, HCT-116, 96 h, Table 5a, 4 days, read-out: 4 Day Relative Growth Inhibition (MTAP +/+). The protocol: (§1) Test compound impact on cancer cell growth was assessed by treating cancer cells with compound for 4 days and then measuring proliferation using an ATP-based cell proliferation readout (Cell Titer Glo, Promega Corporation).
(§2) In a typical assay an isogenic pair of HCT116 human colon carcinoma cell lines which vary only in MTAP deletion status (HCT116 MTAP+/+ and HCT116 MTAP−/−) were plated in 96-well dishes at appropriate cell density. Following 24 hours, cells were then treated with the candidate MAT2A inhibitor. […] Compound was then transferred to a working stock plate in cell culture media by adding 5 μL of compound in DMSO to 495 μL of cell culture media. This working stock was then added to cells via a further 5-fold dilution, by adding 25 μL of working stock to 100 μL of cells in culture media. Following compound addition, cells were incubated at 37° C./5% CO2 for 4 days.
(§3) The plate was then covered with aluminum foil and shaken for 15 minutes to ensure complete mixing and full cell lysis. […] This luminescence measure was converted to a proliferation index by subtracting from each data point the ATP luminescence signal measured from a bank (no cells) well and dividing by the ATP luminescence signal measured in 0.2% DMSO control well adjusted for signal in blank well.

Experiment [1] deals with SAM in HCT116 MTAP-deleted cells. Put plainly: Cellular assay of target engagement (SAM), LC-MS/MS. Type of experiment: cell-based, human. Particulars: 72 h, read-out: Cell 72 h SAM Inhibition (MTAP −/−). How it is done:
Measurement of MAT2A activity in cells was made by direct quantitation of the abundance of the product of its enzymatic activity, SAM. Cancer cells were treated with candidate MAT2A inhibitors for a suitable incubation period, and the cells were then lysed using a reagent which quenched any further enzyme activity. Soluble metabolites including SAM were collected and SAM itself was directly measured from the lysate using quantitative LC-MS/MS.
A typical assay was performed using an HCT116 human colon carcinoma cell line which was genetically engineered to delete the MTAP gene (commercially available from Horizon Discovery). […] Cells were plated in 96-well dishes at appropriate cell density. Following 24 hours, cells were then treated with the candidate MAT2A inhibitor. […] Compound was then transferred to a working stock plate in cell culture media by adding 5 μL of compound in DMSO to 495 μL of cell culture media. This working stock was then added to cells via a further 5-fold dilution, by adding 25 μL of working stock to 100 μL of cells in culture media. Following compound addition, cells were incubated at 37° C./5% CO2 for 72 hrs.
To quantitate SAM levels following compound treatment, cells were gently washed once in ammonium carbonate buffer (75 mM at pH 7.4), placed on dry ice, and lysed with metabolite extraction buffer (80% cold methanol and 20% water (v/v) with acetic acid at 1M final concentration with 200 ng/mL deuterated d3-SAM as internal control). Following centrifugation at 4° C. at 3,200 rpm for 30 minutes, the supernatant was collected and stored at −80° C. until analysis by Liquid Chromatography with tandem Mass Spectrometry (LC-MS/MS). LC-MS/MS analysis was performed using an API6500 Mass Spectrometer (Sciex, Framingham, Mass., USA) operating in positive ion spray mode and equipped with a Waters UPLC Acquity (Waters, Milford, Mass., USA) BEH Amide column.

For a further experiment, the target named is T1, MAT2A homodimer (Homo sapiens, UniProt P31153).
T1 construct: inferred from the Ni sepharose purification and imidazole elution; made in house; host or cells: SF9 insect cells, recombinant baculovirus (Bac to Bac, pFASTBAC1)
T1 sequence (P31153 whole entry): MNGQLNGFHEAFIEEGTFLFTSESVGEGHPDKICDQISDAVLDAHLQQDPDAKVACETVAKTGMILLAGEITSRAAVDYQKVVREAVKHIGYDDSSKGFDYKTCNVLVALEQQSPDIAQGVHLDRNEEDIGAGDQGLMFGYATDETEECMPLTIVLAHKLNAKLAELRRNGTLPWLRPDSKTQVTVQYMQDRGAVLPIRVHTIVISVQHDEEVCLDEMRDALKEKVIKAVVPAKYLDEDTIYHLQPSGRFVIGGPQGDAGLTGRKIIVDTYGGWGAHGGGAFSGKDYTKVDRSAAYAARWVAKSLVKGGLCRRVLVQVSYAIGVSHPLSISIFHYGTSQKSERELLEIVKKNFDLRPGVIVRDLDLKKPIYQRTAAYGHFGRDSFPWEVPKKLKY
The experiment can be described thus: MAT2A biochemical assay (liberated phosphate, PiColorLock Gold). Particulars: Table 5a; MAT2A biochemical assay; read-out: Enzyme Inhibition. A digest of the protocol:
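Baculovirus/Sf9-expressed, Ni-purified MAT2A homodimer preincubated with compound 60 min at 25 °C, then reacted 60 min at 25 °C with substrate mix of 500 μM ATP and 400 μM L-methionine, pH 7.0 (mix, not final levels). Phosphate released with SAM measured by PiColorLock Gold against phosphate standard curve.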

The next experiment relates to HCT116 MTAP-/-. The experiment can be described thus: Inhibition of cellular proliferation (Cell Titer Glo), HCT116 MTAP-/-. In kind it is cell-based, human. As to conditions: 4 days, read-out: 4 Day Relative Growth Inhibition (MTAP −/−). How it is done:
as §1, §2, §3

[2] abbreviates: Homo sapiens, HCT-116, Table 5a.
Setting [3] is: Homo sapiens, HCT-116, 96 h, Table 5a.
[4] abbreviates: Table 6, select pairs of compounds.

pIC50: −log10 of the molar value. Read-outs that look alike come from different tables or passages of the source.

For `[2H]C([2H])([2H])Oc1ccc(N2C(=O)N(c3ccc4nn(CC(F)F)cc4c3)Cc3ccc(OCC(F)F)nc32)cc1` [Example 119, 7-(2,2-difluoroethoxy)-3-(2-(2,2-difluoroethyl)-2H-indazol-5-yl)-1-(4-methoxy-d3-phenyl)-3,4-dihydropyrido[2,3-d]pyrimidin-2(1H)-one], the pIC50 was under 6.00 in the experiment with HCT116 MTAP+/+, over 7.00 in experiment [1] (setting [2]), over 7.00 on MAT2A homodimer and 6.00 to 7.00 in the experiment with HCT116 MTAP-/- (setting [3]).

As for `[2H]C([2H])([2H])Oc1ccc(N2C(=O)N(c3ccc4nn(CC(F)(F)F)cc4c3)Cc3ccc(OCC(F)F)nc32)cc1` [Example 120, 7-(2,2-difluoroethoxy)-1-(4-methoxy-d3-phenyl)-3-(2-(2,2,2-trifluoroethyl)-2H-indazol-5-yl)-3,4-dihydropyrido[2,3-d]pyrimidin-2(1H)-one], the pIC50 was under 6.00 in the experiment on HCT116 MTAP+/+, 6.00 to 7.00 in experiment [1] (setting [2]), over 7.00 at MAT2A homodimer and 6.00 to 7.00 with HCT116 MTAP-/- (setting [3]).

`CCOc1ccc2c(n1)N(c1ccc(OC)cc1)C(=O)N(c1ccc3c(c1)N(C)CCO3)C2` [Example 122, 7-ethoxy-1-(4-methoxyphenyl)-3-(4-methyl-3,4-dihydro-2H-benzo[b][1,4]oxazin-6-yl)-3,4-dihydropyrido[2,3-d]pyrimidin-2(1H)-one]: the pIC50 in the experiment on HCT116 MTAP+/+ was under 6.00; in experiment [1] (setting [2]), 6.00 to 7.00; at MAT2A homodimer, over 7.00; in the experiment with HCT116 MTAP-/- (setting [3]), 6.00 to 7.00.

As for `[2H]C([2H])([2H])Oc1ccc(N2C(=O)N(c3ccc4nn(CCC)cc4c3)Cc3ccc(OCC(F)F)nc32)cc1` [Example 123, 7-(2,2-difluoroethoxy)-1-(4-methoxy-d3-phenyl)-3-(2-propyl-2H-indazol-5-yl)-3,4-dihydropyrido[2,3-d]pyrimidin-2(1H)-one], the pIC50 in the experiment with HCT116 MTAP+/+ was under 6.00; in experiment [1] (setting [2]), over 7.00; at MAT2A homodimer, over 7.00; in the experiment with HCT116 MTAP-/- (setting [3]), 6.00 to 7.00.

With `[2H]C([2H])([2H])Oc1ccc(N2C(=O)N(c3ccc4nn(CC)cc4c3)Cc3ccc(OCC(F)F)nc32)cc1` [Example 124, 7-(2,2-difluoroethoxy)-3-(2-ethyl-2H-indazol-5-yl)-1-(4-methoxy-d3-phenyl)-3,4-dihydropyrido[2,3-d]pyrimidin-2(1H)-one], the pIC50 is under 6.00 in the experiment with HCT116 MTAP+/+, over 7.00 in experiment [1] (setting [2]), over 7.00 at MAT2A homodimer and over 7.00 in the experiment with HCT116 MTAP-/- (setting [3]).

As to `[2H]C([2H])([2H])Oc1ccc(N2C(=O)N(c3ccc4nn(CCOC)cc4c3)Cc3ccc(OCC(F)F)nc32)cc1` [Example 125, 7-(2,2-difluoroethoxy)-3-(2-(2-methoxyethyl)-2H-indazol-5-yl)-1-(4-methoxy-d3-phenyl)-3,4-dihydropyrido[2,3-d]pyrimidin-2(1H)-one], the pIC50 was under 6.00 in the experiment on HCT116 MTAP+/+, over 7.00 in experiment [1] (setting [2]), over 7.00 on MAT2A homodimer and over 7.00 in the experiment on HCT116 MTAP-/- (setting [3]).

As to `[2H]C([2H])([2H])Oc1ccc(N2C(=O)N(c3ccc4nn(CCC(F)(F)F)cc4c3)Cc3ccc(OCC(F)F)nc32)cc1` [Example 128, 7-(2,2-difluoroethoxy)-1-(4-methoxy-d3-phenyl)-3-(2-(3,3,3-trifluoropropyl)-2H-indazol-5-yl)-3,4-dihydropyrido[2,3-d]pyrimidin-2(1H)-one], the pIC50 was under 6.00 in the experiment on HCT116 MTAP+/+, 6.00 to 7.00 in experiment [1] (setting [2]), over 7.00 at MAT2A homodimer and 6.00 to 7.00 with HCT116 MTAP-/- (setting [3]).

With `[2H]C([2H])([2H])Oc1ccc(N2C(=O)N(c3ccc4nn(CCF)cc4c3)Cc3ccc(OCC(F)F)nc32)cc1` [Example 129, 7-(2,2-difluoroethoxy)-3-(2-(2-fluoroethyl)-2H-indazol-5-yl)-1-(4-methoxy-d3-phenyl)-3,4-dihydropyrido[2,3-d]pyrimidin7-2(1H)-one], the pIC50 in the experiment with HCT116 MTAP+/+ was under 6.00; in experiment [1] (setting [2]), 6.00 to 7.00; on MAT2A homodimer it was over 7.00; in the experiment on HCT116 MTAP-/- (setting [3]) it was 6.00 to 7.00.

Regarding `CCOc1ccc2c(n1)N(c1ccc(OC(F)F)cc1)C(=O)N(c1ccc(OC)cc1)C2` [Example 130, 1-(4-(difluoromethoxy)phenyl)-7-ethoxy-3-(4-methoxyphenyl)-3,4-dihydropyrido[2,3-d]pyrimidin-2(1H)-one], the pIC50 is under 6.00 in the experiment with HCT116 MTAP+/+, 6.00 to 7.00 in experiment [1] (setting [2]), over 7.00 on MAT2A homodimer and 6.00 to 7.00 in the experiment with HCT116 MTAP-/- (setting [3]).

`CCOc1ccc2c(n1)N(c1ccc(OC(F)F)cc1)C(=O)N(c1ccc3nn(C)cc3c1)C2` [Example 131, 1-(4-(difluoromethoxy)phenyl)-7-ethoxy-3-(2-methyl-2H-indazol-5-yl)-3,4-dihydropyrido[2,3-d]pyrimidin-2(1H)-one]: the pIC50 with HCT116 MTAP+/+ is 6.00 to 7.00; in experiment [1] (setting [2]), over 7.00; on MAT2A homodimer, over 7.00; in the experiment with HCT116 MTAP-/- (setting [3]) it was 6.00 to 7.00.

Turning to `CCSc1ccc2c(n1)N(c1ccc(OC)cc1)C(=O)N(c1ccc3nn(C)cc3c1)C2` [Example 132, 7-(ethylthio)-1-(4-methoxyphenyl)-3-(2-methyl-2H-indazol-5-yl)-3,4-dihydropyrido[2,3-d]pyrimidin-2(1H)-one], the pIC50 with HCT116 MTAP+/+ was under 6.00; in experiment [1] (setting [2]), 6.00 to 7.00; in experiment [1] (setting [4]), 6.00 to 7.00; at MAT2A homodimer, over 7.00; in the experiment on HCT116 MTAP-/- (setting [3]), 6.00 to 7.00; in the experiment on HCT116 MTAP-/- (setting [4]) it was 6.00 to 7.00.

On to `Cn1cc2cc(N3Cc4ccc(OCC(F)F)nc4N(c4ccc(Br)cc4)C3=O)ccc2n1` [Example 133, 1-(4-bromophenyl)-7-(2,2-difluoroethoxy)-3-(2-methyl-2H-indazol-5-yl)-3,4-dihydropyrido[2,3-d]pyrimidin-2(1H)-one], for which the pIC50 was under 6.00 in the experiment on HCT116 MTAP+/+, over 7.00 in experiment [1] (setting [2]), over 7.00 on MAT2A homodimer and over 7.00 in the experiment on HCT116 MTAP-/- (setting [3]).

Consider `[2H]C([2H])([2H])Oc1ccc(N2C(=O)N(c3ccc4ncn(C)c4c3)Cc3ccc(OCC(F)F)nc32)cc1` [Example 135, 7-(2,2-difluoroethoxy)-1-(4-(methoxy-d3)phenyl)-3-(1-methyl-1H-benzo[d]imidazol-6-yl)-3,4-dihydropyrido[2,3-d]pyrimidin-2(1H)-one], for which the pIC50 with HCT116 MTAP+/+ is under 6.00; in experiment [1] (setting [2]) it was over 7.00; at MAT2A homodimer, over 7.00; in the experiment on HCT116 MTAP-/- (setting [3]), over 7.00.

On to `[2H]C([2H])([2H])Oc1ccc(N2C(=O)N(c3ccc4nn(C)cc4c3)Cc3ccc(OCC(F)F)nc32)cc1` [Example 136, 7-(2,2-difluoroethoxy)-1-(4-(methoxy-d3)phenyl)-3-(2-methyl-2H-indazol-5-yl)-3,4-dihydropyrido[2,3-d]pyrimidin-2(1H)-one], for which the pIC50 in the experiment on HCT116 MTAP+/+ was 6.00 to 7.00; in experiment [1] (setting [2]), over 7.00; on MAT2A homodimer it was over 7.00; in the experiment on HCT116 MTAP-/- (setting [3]), over 7.00.

Turning to `[2H]C([2H])([2H])Oc1ccc(N2C(=O)N(c3ccc4nn(C)cc4c3)Cc3ccc(OCC)nc32)cc1` [Example 137, 7-ethoxy-1-(4-(methoxy-d3)phenyl)-3-(2-methyl-2H-indazol-5-yl)-3,4-dihydropyrido[2,3-d]pyrimidin-2(1H)-one], the pIC50 is under 6.00 in the experiment on HCT116 MTAP+/+, over 7.00 in experiment [1] (setting [2]), over 7.00 on MAT2A homodimer and over 7.00 in the experiment with HCT116 MTAP-/- (setting [3]).

(Values after US20220098203A1 (priority 2018, published 2022).)
